According to article PMC3842171 (Bioorganic & medicinal chemistry letters, 2011):

How the values were obtained:
HDAC1, HDAC3, and HDAC6 = experiment: Single-concentration isoform selectivity screen with Fluor de Lys kit; format: biochemical
[1] = system: HDAC activity (HeLa cell lysates); experiment: Fluor de Lys in vitro fluorescence HDAC activity assay using HeLa cell lysates; format: biochemical

Structure (SMILES): CCCCC(CCCCC(=O)Nc1ccccc1)CC(=O)NO (stereo not shown) [Compound 1a, C3-n-butyl SAHA]
- isoform preference in single-concentration screen (HDAC1, HDAC3, and HDAC6; 32 µM): preference for HDAC6 over HDAC3

Structure (SMILES): O=C(CC(CCCCC(=O)Nc1ccccc1)c1ccccc1)NO (stereo not shown) [Compound 1b]
- isoform preference in single-concentration screen (HDAC1, HDAC3, and HDAC6; 32 µM): preference for HDAC6 over HDAC3

Structure (SMILES): CCC(CCCCC(=O)Nc1ccccc1)CC(=O)NO (stereo not shown) [Compound 1c]
- fold decreased activity compared to the methyl analogue 1e [1]: 91 fold
- isoform preference in single-concentration screen (HDAC1, HDAC3, and HDAC6; 32 µM): greater potency for HDAC6 over HDAC1 and HDAC3

Structure (SMILES): C=CC(CCCCC(=O)Nc1ccccc1)CC(=O)NO (stereo not shown) [Compound 1d]
- isoform preference in single-concentration screen (HDAC1, HDAC3, and HDAC6; 32 µM): preference for HDAC6 over HDAC3

Structure (SMILES): CC(CCCCC(=O)Nc1ccccc1)CC(=O)NO (stereo not shown) [Compound 1e]
- fold less potent than SAHA ([1]; IC50 ratio versus SAHA): 4 fold
- isoform preference in single-concentration screen (HDAC1, HDAC3, and HDAC6; 375 nM): slight preference for HDAC1 over HDAC3 and HDAC6
